From publication PMC9962964, “^68Ga-Labeled [Thz^14]Bombesin(7–14) Analogs: Promising GRPR-Targeting Agonist PET Tracers with Low Pancreas Uptake” (Molecules, 2023)
Read-outs that look alike come from different tables or passages of the source.

Assays:
[1] = 15 min post-injection
Protocol: PET/CT imaging, biodistribution, and in vivo stability studies were conducted on male NOD.Cg-Rag1^tm1Mom Il2rg^tm1Wjl/SzJ (NRG) mice, following previously published procedures. The experiments were conducted according to the guidelines established by the Canadian Council on Animal Care and approved by the Animal Ethics Committee of the University of British Columbia (protocol number A20-0113, approved on 30 September 2020). […] Mice were used for PET/CT imaging and biodistribution studies when the tumor grew to 5–8 mm in diameter over around 4 weeks.
At 15 min post-injection, mice were sedated and euthanized, and urine and blood were collected. The plasma was extracted from whole blood by adding CH3CN (500 μL), vortex, centrifugation, and the separation of supernatant. The plasma and urine samples were analyzed via radio-HPLC using the conditions for quality control of these ^68Ga-labeled radioligands (Table S3).

[2] = tested on: PC-3 tumor xenografts; assay: Ex vivo biodistribution in PC-3 tumor-bearing mice; design: species or system NRG mice
Protocol: (§1) For biodistribution studies, the mice were injected with the radiotracer (2–4 MBq) via the tail vein as described above. For blocking, the mice were co-injected with 100 μg of [D-Phe^6,Leu-NHEt^13,des-Met^14]Bombesin(6–14). At 1 h post-injection, the mice were anesthetized through isoflurane inhalation and euthanized through CO2 inhalation. Blood was collected through a cardiac puncture, and organs/tissues of interest were collected, weighed, and counted using a Perkin Elmer (Waltham, MA, USA) Wizard2 2480 automatic gamma counter.

[3] = Ex vivo biodistribution in PC-3 tumor-bearing mice; design: species or system NRG mice; conditions: mouse; for tissue to tissue ratio at 1 h: male, NRG (NOD.Cg-Rag1^tm1Mom Il2rg^tm1Wjl/SzJ), iv, total radioactivity; for tissue uptake at 1 h: intravenous
Protocol: as §1

[4] = tested on: PC-3 tumor xenografts; assay: PET/CT imaging of PC-3 tumor xenografts; format: in vivo, NRG mice; conditions: 1 h post-injection
Protocol: PET/CT imaging experiments were performed on a Siemens (Knoxville, TN) Inveon micro PET/CT scanner. The tumor-bearing mouse was injected with 3–5 MBq of ^68Ga-labeled tracer through a lateral caudal tail vein under anesthesia, followed by recovery and roaming freely in its cage during the uptake period. At 50 min post-injection, a 10 min CT scan was conducted first for the localization and attenuation correction after segmentation for reconstructing the PET images, followed by a 10 min static PET imaging acquisition.

[5] = pH 7.4
Protocol: Briefly, aliquots (2 μL) of the ^68Ga-labeled peptides were added into a 15 mL falcon tube containing 3 mL of n-octanol and 3 mL of 0.1 mol/L DPBS (pH 7.4). The mixture was vortexed for 1 min and then centrifuged at 3000 rpm for 15 min. Samples of the n-octanol (1 mL) and buffer (1 mL) layers were collected and measured in a gamma counter. LogD7.4 was calculated using the following equation: LogD7.4 = log10 [(counts in the n-octanol phase)/(counts in the buffer phase)].

[6] = co-injection of 100 μg [D-Phe6,Leu-NHEt13,des-Met14]Bombesin(6–14), 1 h post-injection

## CC(C)C[C@H](NC(=O)[C@H](Cc1c[nH]cn1)NC(=O)CNC(=O)[C@@H](NC(=O)[C@H](C)NC(=O)[C@H](Cc1c[nH]c2ccccc12)NC(=O)[C@H](CCC(N)=O)NC(=O)[C@@H](Cc1ccccc1)NC(=O)CN1CCC(NC(=O)CN2CCN(CC(=O)O)CCN(CC(=O)O)CCN(CC(=O)O)CC2)CC1)C(C)C)C(=O)N1CSC[C@H]1C(N)=O [[^68Ga]Ga-TacBOMB2, metal not drawn]
[1]; mouse plasma, n = 3
  intact fraction in plasma: 12.7 ± 2.93%
[1]; mouse urine
  intact tracer in urine: no intact
[2]; 1 h blocked: co-injected with 100 µg of [D-Phe6,Leu-NHEt13,des-Met14]Bombesin(6-14), n = 4
  Tumor/blood uptake ratio: 1.71 ± 0.18
[2]; [6]
  reduction of average uptake in PC-3 tumor xenografts by co-injection of blocker: 85%
  reduction of average uptake in pancreas by co-injection of blocker: 88%
  reduction of average uptake in stomach by co-injection of blocker: 76%
[3]; tumor and bone, 1 h blocked: co-injected with 100 µg of [D-Phe6,Leu-NHEt13,des-Met14]Bombesin(6-14), n = 4, read-out: Tumor/bone uptake ratio
  tissue to tissue ratio at 1 h: 8.94 ± 1.49
[3]; tumor and bone, 1 h post-injection, n = 4, read-out: Tumor/bone uptake ratio
  tissue to tissue ratio at 1 h: 28.9 ± 18.3
[3]; tumor and intestines, 1 h blocked: co-injected with 100 µg of [D-Phe6,Leu-NHEt13,des-Met14]Bombesin(6-14), n = 4, read-out: Tumor/intestines uptake ratio
  tissue to tissue ratio at 1 h: 3.33 ± 0.67
[3]; tumor and intestines, 1 h post-injection, n = 4, read-out: Tumor/intestines uptake ratio
  tissue to tissue ratio at 1 h: 10.5 ± 3.06
[3]; tumor and kidney, 1 h blocked: co-injected with 100 µg of [D-Phe6,Leu-NHEt13,des-Met14]Bombesin(6-14), n = 4, read-out: Tumor/kidney uptake ratio
  tissue to tissue ratio at 1 h: 0.47 ± 0.04
[3]; tumor and kidney, 1 h post-injection, n = 4, read-out: Tumor/kidney uptake ratio
  tissue to tissue ratio at 1 h: 2.46 ± 0.33
[3]; tumor and muscle, 1 h blocked: co-injected with 100 µg of [D-Phe6,Leu-NHEt13,des-Met14]Bombesin(6-14), n = 4, read-out: Tumor/muscle uptake ratio
  tissue to tissue ratio at 1 h: 7.14 ± 1.4
[3]; tumor and muscle, 1 h post-injection, n = 4, read-out: Tumor/muscle uptake ratio
  tissue to tissue ratio at 1 h: 57.9 ± 32.8
[3]; tumor and pancreas, 1 h blocked: co-injected with 100 µg of [D-Phe6,Leu-NHEt13,des-Met14]Bombesin(6-14), n = 4, read-out: Tumor/pancreas uptake ratio
  tissue to tissue ratio at 1 h: 6.22 ± 0.67
[3]; tumor and pancreas, 1 h post-injection, n = 4, read-out: Tumor/pancreas uptake ratio
  tissue to tissue ratio at 1 h: 4.64 ± 0.77
[3]; tumor and whole blood, 1 h post-injection, n = 4, read-out: Tumor/blood uptake ratio
  tissue to tissue ratio at 1 h: 16.4 ± 5.64
[3]; PC-3 tumor, 100 ug, 1 h blocked: co-injected with 100 µg of [D-Phe6,Leu-NHEt13,des-Met14]Bombesin(6-14), n = 4, read-out: PC-3 tumor uptake
  tissue uptake at 1 h: 0.92 ± 0.22 %ID/g
[3]; PC-3 tumor, 1 h post-injection, n = 4, read-out: PC-3 tumor uptake
  tissue uptake at 1 h: 5.95 ± 0.5 %ID/g
[3]; blood, 100 ug, 1 h blocked: co-injected with 100 µg of [D-Phe6,Leu-NHEt13,des-Met14]Bombesin(6-14), n = 4, read-out: Blood uptake
  tissue uptake at 1 h: 0.55 ± 0.19 %ID/g
[3]; blood, 1 h post-injection, n = 4, read-out: Blood uptake
  tissue uptake at 1 h: 0.39 ± 0.12 %ID/g
[3]; bone, 100 ug, 1 h blocked: co-injected with 100 µg of [D-Phe6,Leu-NHEt13,des-Met14]Bombesin(6-14), n = 4, read-out: Bone uptake
  tissue uptake at 1 h: 0.1 ± 0.03 %ID/g
[3]; bone, 1 h post-injection, n = 4, read-out: Bone uptake
  tissue uptake at 1 h: 0.26 ± 0.11 %ID/g
[3]; brain, 100 ug, 1 h blocked: co-injected with 100 µg of [D-Phe6,Leu-NHEt13,des-Met14]Bombesin(6-14), n = 4, read-out: Brain uptake
  tissue uptake at 1 h: 0.02 %ID/g
[3]; brain, muscle, fat, bone, liver, stomach, heart, and spleen, 1 h post-injection, read-out: Uptake values for the brain, muscle, fat, bone, liver, stomach, heart, and spleen
  tissue uptake at 1 h: < 1 %ID/g
[3]; fat, 100 ug, 1 h blocked: co-injected with 100 µg of [D-Phe6,Leu-NHEt13,des-Met14]Bombesin(6-14), n = 4, read-out: Fat uptake
  tissue uptake at 1 h: 0.07 ± 0.02 %ID/g
[3]; fat, 1 h post-injection, n = 4, read-out: Fat uptake
  tissue uptake at 1 h: 0.1 ± 0.03 %ID/g
[3]; heart, 100 ug, 1 h blocked: co-injected with 100 µg of [D-Phe6,Leu-NHEt13,des-Met14]Bombesin(6-14), n = 4, read-out: Heart uptake
  tissue uptake at 1 h: 0.16 ± 0.04 %ID/g
[3]; heart, 1 h post-injection, n = 4, read-out: Heart uptake
  tissue uptake at 1 h: 0.14 ± 0.02 %ID/g
[3]; intestines, 100 ug, 1 h blocked: co-injected with 100 µg of [D-Phe6,Leu-NHEt13,des-Met14]Bombesin(6-14), n = 4, read-out: Intestines uptake
  tissue uptake at 1 h: 0.28 ± 0.07 %ID/g
[3]; intestines, 1 h post-injection, n = 4, read-out: Intestines uptake
  tissue uptake at 1 h: 0.6 ± 0.12 %ID/g
[3]; kidneys, 100 ug, 1 h blocked: co-injected with 100 µg of [D-Phe6,Leu-NHEt13,des-Met14]Bombesin(6-14), n = 4, read-out: Kidneys uptake
  tissue uptake at 1 h: 1.99 ± 0.59 %ID/g
[3]; kidneys, 1 h post-injection, n = 4, read-out: Kidneys uptake
  tissue uptake at 1 h: 2.43 ± 0.16 %ID/g
[3]; lungs, 100 ug, 1 h blocked: co-injected with 100 µg of [D-Phe6,Leu-NHEt13,des-Met14]Bombesin(6-14), n = 4, read-out: Lungs uptake
  tissue uptake at 1 h: 0.39 ± 0.1 %ID/g
[3]; lungs, 1 h post-injection, n = 4, read-out: Lungs uptake
  tissue uptake at 1 h: 0.39 ± 0.1 %ID/g
[3]; pancreas, 100 ug, 1 h blocked: co-injected with 100 µg of [D-Phe6,Leu-NHEt13,des-Met14]Bombesin(6-14), n = 4, read-out: Pancreas uptake
  tissue uptake at 1 h: 0.15 ± 0.03 %ID/g
[3]; pancreas, 1 h post-injection, n = 4, read-out: Pancreas uptake
  tissue uptake at 1 h: 1.3 ± 0.14 %ID/g
[3]; spleen, 100 ug, 1 h blocked: co-injected with 100 µg of [D-Phe6,Leu-NHEt13,des-Met14]Bombesin(6-14), n = 4, read-out: Spleen uptake
  tissue uptake at 1 h: 0.18 ± 0.05 %ID/g
[3]; spleen, 1 h post-injection, n = 4, read-out: Spleen uptake
  tissue uptake at 1 h: 0.27 ± 0.1 %ID/g
[3]; stomach, 100 ug, 1 h blocked: co-injected with 100 µg of [D-Phe6,Leu-NHEt13,des-Met14]Bombesin(6-14), n = 4, read-out: Stomach uptake
  tissue uptake at 1 h: 0.13 ± 0.06 %ID/g
[3]; testes, 100 ug, 1 h blocked: co-injected with 100 µg of [D-Phe6,Leu-NHEt13,des-Met14]Bombesin(6-14), n = 4, read-out: Testes uptake
  tissue uptake at 1 h: 0.21 ± 0.16 %ID/g
[4]
  visualization of PC-3 tumor xenografts in PET images: clearly visualized
[4]; PET images
  excretion pathway: primarily excreted via the renal pathway
[5]
  logD: -3.21 ± 0.03
